# Laboratory results taken from article PMC10388305, “Synthesis and Evaluation of a Monomethyl Auristatin E—Integrin αvβ6 Binding Peptide–Drug Conjugate for Tumor Targeted Drug Delivery” (Journal of Medicinal Chemistry, 2023).
# Entries after “also recorded” stand apart in the source; their conditions may differ.
# Experiments:
# [1] = system: DX3puro (−) cells; assay: Caspase-3/7 activity assay (ApoTox-Glo), DX3puro; assay type: cell-based; details: 0.625 nM (MMAE 1 nM, staurosporine 100 nM), 24, 48, 72 h
# Method: (§1) Caspase-3/7 activity was analyzed using an ApoTox-Glo Triplex Assay kit. Cells were seeded in a 96 well plate at the same density and using the same respective media as described for the WST-1 assay and incubated overnight (37 °C, 5% CO2). DX3puroβ6 and DX3puro cells were treated with 1 nM of MMAE (free, non-targeted drug) or 0.625 nM of the other compounds: NH2-2, [^natCu]2, NH2-PDC-1, or [^natCu]PDC-1. BxPC-3 and MIA PaCa-2 cells were treated with 10 nM of MMAE or 250 nM of the other compounds: NH2-2, [^natCu]2, NH2-PDC-1, or [^natCu]PDC-1. All cells were treated with 100 nM of staurosporine as a positive control.[24] Untreated cells (media) were used as a measure of endogenous caspase-3/7 activity (normalized to 1). Cells were treated (n = 4/cell line/compound/time) for 24, 48, or 72 h (37 °C, 5% CO2) prior to washing. After treatment, the media was removed, cells were washed, and Caspase-Glo 3/7 reagent was added, and incubated for 1 h at room temperature. Caspase-3/7 activity was analyzed by measuring luminescence with a Fluoroskan FL microplate reader according to the manufacturer’s protocol.
# [2] = system: BxPC-3 (+) cells; assay: Caspase-3/7 activity assay (ApoTox-Glo), BxPC-3; assay type: cell-based; details: for Caspase-3/7 activity (in words): 250 nM (MMAE 10 nM, staurosporine 100 nM), 24, 48, 72 h; for Caspase-3/7 activity, fold increase: 250 nM, 48 h, untreated = 1, n = 4
# Method: as §1
# [3] = system: DX3puroβ6 (+) cells; assay: Caspase-3/7 activity assay (ApoTox-Glo), DX3puroβ6; assay type: cell-based; details: for Caspase-3/7 activity (in words): DX3puroβ6 (+), 0.625 nM (MMAE 1 nM, staurosporine 100 nM), 24, 48, 72 h; for Caspase-3/7 activity, times higher: DX3puroβ6, 0.625 nM, 24 h, untreated = 1, n = 4
# Method: as §1
# [4] = system: MIA PaCa-2 (−) cells; assay: Caspase-3/7 activity assay (ApoTox-Glo), MIA PaCa-2; assay type: cell-based; details: 250 nM (MMAE 10 nM, staurosporine 100 nM), 24, 48, 72 h
# Method: as §1
# [5] = system: DX3puro (−) cells; assay: WST-1 cell viability assay, DX3puro; assay type: cell-based; details: up to 5 nM
# Method: (§2) Peptides NH2-2 and [^natCu]2 were not toxic to any cells (Figure 3, gray and black, respectively).
# (§3) Cell viability was measured after treatment with either NH2-2, [^natCu]2, MMAE (free, non-targeted drug), NH2-PDC-1, or [^natCu]PDC-1 in DX3puroβ6 (+) and DX3puro (−) cells at variable concentrations up to 5 nM, and in BxPC-3 (+) and MIA PaCa-2 (−) cells at variable concentrations up to 250 nM, or with MMAE at concentrations up to 10 nM. Cells were seeded in a 96 well plate at a density of 6000 cells/well for DX3puroβ6 and DX3puro, and at a density of 10,000 cells/well for BxPC-3 and MIA PaCa-2. DMEM media was used for all cells except for BxPC-3 (RPMI 1640 media). Cells (n = 6–8 wells/cell type/compound) were treated with different concentrations of NH2-2, [^natCu]2, MMAE, NH2-PDC-1, or [^natCu]PDC-1 dissolved in the respective media, as well as their respective media (no treatment) for 48 h (37 °C, 5% CO2), after which the media was removed; cells were washed twice with media (200 μL) and re-incubated in media (37 °C, 5% CO2) for 24 h. The media was then removed and the WST-1 reagent was added to each well, and the cells were incubated for 2 h at 37 °C. The 96 well plates were read at 450 nm by a Multiscan Ascent microplate reader. The percent cell viability was normalized to untreated cells (set as 100% viability) for each cell line.
# [6] = system: MIA PaCa-2 (−) cells; assay: WST-1 cell viability assay, MIA PaCa-2; assay type: cell-based
# Method: as §2, §3
# [7] = system: DX3puroβ6 (+) cells; assay: WST-1 cell viability assay, DX3puroβ6; assay type: cell-based; details: for Fold more cytotoxic toward DX3puroβ6 (+) than DX3puro (−) cells: WST-1 EC50 ratio
# Method: as §2, §3
# [8] = system: DX3puroβ6 (+) tumors; assay: Therapy study, DX3puroβ6 (+) tumor-bearing mice; assay type: in vivo
# Source text: (§4) Mice treated with [^natCu]PDC-1 had slower tumor growth compared to the groups receiving saline, non-drug bearing peptide [^natCu]2, or free, non-targeted MMAE (Figure 7). […] All mice in the groups treated with saline, non-drug bearing peptide [^natCu]2, or free, non-targeted MMAE had met an end point criterion (≥2 cm in any direction and/or tumor ulceration) by 56 days, 70 days, and 64 days from start of treatment, respectively, with all these groups having the same median survival of 37 days (Figure 7B).
# Tumor xenografts were established by subcutaneous injection of either DX3puroβ6 or DX3puro cells (3 × 10^6 cells in 100 μL serum-free DMEM/animal) into the flank. The tumors were allowed to grow for 19 days before the start of treatment (day 0). Mice were treated with either (1) saline, (2) peptide ([^natCu]2), 6 mg/kg, 1.12 μmol/kg), (3) non-targeted drug (MMAE, 0.3 mg/kg, 0.42 μmol/kg), or (4) PDC ([^natCu]PDC-1, 6 mg/kg, 0.88 μmol/kg). Dosing of MMAE was 0.3 mg/kg as per maximum dose with no physiological response.[25] The [^natCu]PDC-1 treatment groups consisted of n = 10/tumor model, while all other groups (saline, [^natCu]2, and MMAE) consisted of n = 4/tumor model. All groups received four doses (on days 0, 3, 6, and 9) via i.v. tail vein injection of the above dose dissolved in saline (100 μL). The mean weights and standard deviation of each group was 25.9 ± 1.2 g (saline), 25.6 ± 1.5 g ([^natCu]2), 25.8 ± 2.5 g (MMAE), 24.9 ± 1.9 g ([^natCu]PDC-1, DX3puroβ6 tumors), and 25.7 ± 2.0 g ([^natCu]PDC-1, DX3puro tumors) at day 0. Tumor volumes and body weights (to assess possible systemic toxicity) were measured starting on day 0, and once a week thereafter until the end of the study. Tumor volume (V) was determined according to the equation V = (π/6) × L × W × H, where L is the longest axis, W is the axis perpendicular to L, and H is perpendicular to the plane of L and W. End point determination criteria were: any axis >2 cm, active ulceration, or compromised health of the mouse (>20% loss of body weight from the start of the study). All data are represented as the mean ± SD and are plotted beginning at day 0. Survival curves were determined by Kaplan–Meier method.
# [9] = system: DX3puro (−) tumors; assay: Therapy study, DX3puro (−) tumor-bearing mice; assay type: in vivo
# Source text: as §4
# Tumor xenografts were established by subcutaneous injection of either DX3puroβ6 or DX3puro cells (3 × 10^6 cells in 100 μL serum-free DMEM/animal) into the flank. The tumors were allowed to grow for 19 days before the start of treatment (day 0). […] Tumor volumes and body weights (to assess possible systemic toxicity) were measured starting on day 0, and once a week thereafter until the end of the study. Tumor volume (V) was determined according to the equation V = (π/6) × L × W × H, where L is the longest axis, W is the axis perpendicular to L, and H is perpendicular to the plane of L and W. End point determination criteria were: any axis >2 cm, active ulceration, or compromised health of the mouse (>20% loss of body weight from the start of the study). […] Survival curves were determined by Kaplan–Meier method.
# [10] = system: BxPC-3 (+) cells; assay: WST-1 cell viability assay, BxPC-3; assay type: cell-based
# Method: as §2, §3
# [11] = 48 h treatment + 24 h media, mean ± SD
Compound,Caspase-3/7 activity (in words) [1],Caspase-3/7 activity (in words) [2],Caspase-3/7 activity (in words) [3],Caspase-3/7 activity (in words) [4],"Cytotoxicity (in words), WST-1 [5]","Caspase-3/7 activity, fold increase [2] [fold]",Fold more cytotoxic toward DX3puroβ6 (+) than DX3puro (−) cells [7] [fold],"Caspase-3/7 activity, times higher [3] [times]",further results
"CN[C@@H]1C[C@H]2O[C@@](C)([C@@H]1OC)n1c3ccccc3c3c4c(c5c6ccccc6n2c5c31)C(=O)NC4 [staurosporine, reference compound]",increased caspase-3/7 activity,increased caspase-3/7 activity,increased caspase-3/7 activity,increased caspase-3/7 activity,,,,,
"CC[C@H](C)[C@@H]([C@@H](CC(=O)N1CCC[C@H]1[C@H](OC)[C@@H](C)C(=O)N[C@H](C)[C@@H](O)c1ccccc1)OC)N(C)C(=O)[C@@H](NC(=O)[C@H](C(C)C)N(C)C(=O)OCc1ccc(NC(=O)[C@H](CCCNC(N)=O)NC(=O)[C@@H](NC(=O)CCOCCOCCNC(=O)CCN2C(=O)CC(SC[C@H](NC(=O)CN3CCN(CC(=O)O)CCN(CC(=O)O)CCN(CC(=O)O)CC3)C(=O)NCCOCCOCCOCCOCCOCCOCCOCCOCCOCCOCCOCCOCCOCCOCCOCCOCCOCCOCCOCCOCCOCCOCCOCCOCCOCCOCCOCCOCCC(=O)N[C@@H](CC(N)=O)C(=O)N[C@@H](C)C(=O)N[C@H](C(=O)N3CCC[C@H]3C(=O)N[C@@H](CC(N)=O)C(=O)N[C@@H](CC(C)C)C(=O)N[C@@H](CCCNC(=N)N)C(=O)NCC(=O)N[C@@H](CC(=O)O)C(=O)N[C@@H](CC(C)C)C(=O)N[C@@H](CCC(N)=O)C(=O)N[C@H](C(=O)N[C@@H](CC(C)C)C(=O)N[C@@H](C)C(=O)N[C@@H](CCC(N)=O)C(=O)N[C@@H](CCCNC(=N)N)C(=O)N[C@H](C(=O)N[C@@H](C)C(=O)N[C@@H](CCCNC(=N)N)C(=O)N[C@H](C(=O)NCCOCCOCCOCCOCCOCCOCCOCCOCCOCCOCCOCCOCCOCCOCCOCCOCCOCCOCCOCCOCCOCCOCCOCCOCCOCCOCCOCCOCCC(N)=O)[C@@H](C)O)C(C)C)C(C)C)C(C)C)C2=O)C(C)C)cc1)C(C)C (some centres unmarked) [[^natCu]PDC-1, metal not drawn]",no observed change,,,slight increase,no observable cytotoxic effects,> 3,> 86,> 5,"Concentration required for noticeable cytotoxic effects ([6]; MIA PaCa-2, WST-1): ≥ 250 nM; Median survival ([8]; DX3puroβ6 (+) tumors, 6 mg/kg i.v. on days 0, 3, 6, 9, n = 10): 77 days; Mean tumor volume, times smaller than all other treatment groups (saline, [natCu]2, MMAE) ([8]; day 37): > 4 times; Mean tumor volume, times smaller than equally treated DX3puro (−) tumors ([8]; day 37, P = 0.0099): > 2.75 times; Body weight / systemic toxicity (in words) ([8]; four doses of 6 mg/kg i.v., body weight weekly, all groups compared, 6 mg/kg): No significant differences; also recorded: did not cause adverse systemic side-effects; Median survival, fold longer than other treatment groups ([8]; vs saline, [natCu]2, MMAE (37 days)): > 2 fold; Median survival ([9]; 6 mg/kg i.v. on days 0, 3, 6, 9, n = 10): 49 days; Time at which all mice had reached an end point ([9]; from start of treatment): 95 days"
NH2-C-αvβ6-BP [NH2-2],no effect on caspase-3/7 activity,no effect on caspase-3/7 activity,no effect on caspase-3/7 activity,no effect on caspase-3/7 activity,not toxic,,,,"Cytotoxicity (in words), WST-1 ([10]; up to 250 nM): not toxic; Cytotoxicity (in words), WST-1 ([6]; MIA PaCa-2 (−), up to 250 nM): not toxic; Cytotoxicity (in words), WST-1 ([7]; DX3puroβ6 (+), up to 5 nM): not toxic"
CC[C@H](C)[C@@H]([C@@H](CC(=O)N1CCC[C@H]1[C@H](OC)[C@@H](C)C(=O)N[C@H](C)[C@@H](O)c1ccccc1)OC)N(C)C(=O)[C@@H](NC(=O)[C@H](C(C)C)N(C)C(=O)OCc1ccc(NC(=O)[C@H](CCCNC(N)=O)NC(=O)[C@@H](NC(=O)CCOCCOCCNC(=O)CCN2C(=O)CC(SC[C@H](N)C(=O)NCCOCCOCCOCCOCCOCCOCCOCCOCCOCCOCCOCCOCCOCCOCCOCCOCCOCCOCCOCCOCCOCCOCCOCCOCCOCCOCCOCCOCCC(=O)N[C@@H](CC(N)=O)C(=O)N[C@@H](C)C(=O)N[C@H](C(=O)N3CCC[C@H]3C(=O)N[C@@H](CC(N)=O)C(=O)N[C@@H](CC(C)C)C(=O)N[C@@H](CCCNC(=N)N)C(=O)NCC(=O)N[C@@H](CC(=O)O)C(=O)N[C@@H](CC(C)C)C(=O)N[C@@H](CCC(N)=O)C(=O)N[C@H](C(=O)N[C@@H](CC(C)C)C(=O)N[C@@H](C)C(=O)N[C@@H](CCC(N)=O)C(=O)N[C@@H](CCCNC(=N)N)C(=O)N[C@H](C(=O)N[C@@H](C)C(=O)N[C@@H](CCCNC(=N)N)C(=O)N[C@H](C(=O)NCCOCCOCCOCCOCCOCCOCCOCCOCCOCCOCCOCCOCCOCCOCCOCCOCCOCCOCCOCCOCCOCCOCCOCCOCCOCCOCCOCCOCCC(N)=O)[C@@H](C)O)C(C)C)C(C)C)C(C)C)C2=O)C(C)C)cc1)C(C)C (some centres unmarked) [NH2-PDC-1],no observed change,,,no significant increase,,> 3,> 31,> 5,"EC50 [10, 11]: 222 ± 114 nM; EC50 [5, 11]: > 5 nM; EC50 ([6]; MIA PaCa-2 (−), 48 h treatment + 24 h media, up to 250 nM (MMAE up to 10 nM), mean ± SD): > 250 nM; EC50 ([7]; DX3puroβ6 (+), 48 h treatment + 24 h media, mean ± SD): 0.159 ± 0.014 nM"
